Reference: PubChem BioAssay AID248 (DTP/NCI, 2004)
Several values for one entry are separate records, joined by “and”; a condition that tells them apart may be missing. Equal values may be shown once. Inconclusive results and toxic doses are left out. No stated cut-off is given here; in the data, active means T/C of 150% or more; inactive means T/C below 125%.

Test system: L1210 leukemia ip in BDF1 mice, survival T/C
Test: NCI In Vivo Anticancer Drug Screen. Data for tumor model L1210 Leukemia (intraperitoneal) in B6D2F1 (BDF1) mice
Conditions: endpoint: mean survival time, higher = longer survival
Outline: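 Tumor cells were implanted, animals were treated, and survival was followed. The result divides the treated measurement by the vehicle-control measurement.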

[1] = dose: 100.0 mg/kg/injection, schedule: Q01DX009 (ip), vehicle: saline with Tween-80
[2] = dose: 100.0 mg/kg/injection, schedule: Q04DX003 (ip), vehicle: saline with Tween-80
[3] = dose: 200.0 mg/kg/injection, schedule: Q01DX009 (ip), vehicle: saline with Tween-80
[4] = dose: 200.0 mg/kg/injection, schedule: Q04DX003 (ip), vehicle: saline with Tween-80
[5] = dose: 400.0 mg/kg/injection, schedule: Q01DX009 (ip), vehicle: saline with Tween-80
[6] = dose: 400.0 mg/kg/injection, schedule: Q04DX003 (ip), vehicle: saline with Tween-80
[7] = dose: 400.0 mg/kg/injection, schedule: Q01DX001 (ip), vehicle: carboxymethylcellulose (CMC)
[8] = dose: 25.0 mg/kg/injection, schedule: Q01DX009 (ip), vehicle: saline
[9] = dose: 25.0 mg/kg/injection, schedule: Q04DX003 (ip), vehicle: saline
[10] = dose: 50.0 mg/kg/injection, schedule: Q04DX003 (ip), vehicle: saline
[11] = dose: 100.0 mg/kg/injection, schedule: Q01DX009 (ip), vehicle: Klucel (hydroxypropylcellulose) (HPC)
[12] = dose: 100.0 mg/kg/injection, schedule: Q04DX003 (ip), vehicle: Klucel (hydroxypropylcellulose) (HPC)
[13] = dose: 200.0 mg/kg/injection, schedule: Q01DX009 (ip), vehicle: Klucel (hydroxypropylcellulose) (HPC)
[14] = dose: 200.0 mg/kg/injection, schedule: Q04DX003 (ip), vehicle: Klucel (hydroxypropylcellulose) (HPC)
[15] = dose: 400.0 mg/kg/injection, schedule: Q01DX009 (ip), vehicle: Klucel (hydroxypropylcellulose) (HPC)
[16] = dose: 400.0 mg/kg/injection, schedule: Q04DX003 (ip), vehicle: Klucel (hydroxypropylcellulose) (HPC)
[17] = dose: 100.0 mg/kg/injection, schedule: Q01DX001 (ip), vehicle: Klucel (hydroxypropylcellulose) (HPC)
[18] = dose: 200.0 mg/kg/injection, schedule: Q01DX001 (ip), vehicle: Klucel (hydroxypropylcellulose) (HPC)
[19] = dose: 75.0 mg/kg/injection, schedule: Q01DX001 (ip), vehicle: saline
[20] = dose: 100.0 mg/kg/injection, schedule: Q04DX002 (ip), vehicle: Klucel (hydroxypropylcellulose) (HPC)
[21] = dose: 200.0 mg/kg/injection, schedule: Q04DX002 (ip), vehicle: Klucel (hydroxypropylcellulose) (HPC)
[22] = dose: 400.0 mg/kg/injection, schedule: Q04DX002 (ip), vehicle: Klucel (hydroxypropylcellulose) (HPC)
[23] = dose: 100.0 mg/kg/injection, schedule: Q01DX001 (ip), vehicle: saline
[24] = dose: 200.0 mg/kg/injection, schedule: Q01DX001 (ip), vehicle: saline

Measured: T/C

COc1ccccc1NC(=O)Nc1cc(C)cc(C)n1
inactive: [1] 101 % of control | [2] 97 % of control | [3] 98 % of control | [4] 97 % of control | [5] 104 % of control | [6] 101 % of control

COC(=O)N1c2ccccc2C=C(NC(C)=O)C1C#N (centres undefined)
inactive: [1] 117 % of control | [2] 103 % of control | [3] 98 % of control | [4] 95 % of control | [5] 98 % of control | [6] 94 % of control

Cc1ccc(I)cc1NCN1C(=O)c2ccccc2C1=O
inactive: dose: 100.0 mg/kg/injection, schedule: Q04DX002 (ip), vehicle: saline with Tween-80 100 % of control | dose: 200.0 mg/kg/injection, schedule: Q04DX002 (ip), vehicle: saline with Tween-80 107 % of control | dose: 400.0 mg/kg/injection, schedule: Q04DX002 (ip), vehicle: saline with Tween-80 104 % of control

Cc1cc(C)c(C(=O)c2ccccc2)c(=O)o1
inactive: dose: 10.0 mg/kg/injection, schedule: Q01DX001 (ip), vehicle: carboxymethylcellulose (CMC) 100 % of control | dose: 20.0 mg/kg/injection, schedule: Q01DX001 (ip), vehicle: carboxymethylcellulose (CMC) 100 % of control | dose: 40.0 mg/kg/injection, schedule: Q01DX001 (ip), vehicle: carboxymethylcellulose (CMC) 97 % of control | [7] 103 % of control

CCCCN(CCCC)c1ccc(C(=O)O)cc1
inactive: [1] 100 % of control | [2] 100 % of control | [3] 102 % of control | [4] 98 % of control

COc1cc(C(=O)OC(C)CN2CCOCC2)cc(OC)c1OC (centres undefined)
inactive: [8] 90 % of control | [9] 95 % of control | dose: 50.0 mg/kg/injection, schedule: Q01DX009 (ip), vehicle: saline 101 % of control | [10] 109 % of control | dose: 100.0 mg/kg/injection, schedule: Q01DX009 (ip), vehicle: saline 100 % of control | dose: 100.0 mg/kg/injection, schedule: Q04DX003 (ip), vehicle: saline 101 % of control | dose: 200.0 mg/kg/injection, schedule: Q01DX009 (ip), vehicle: saline 90 % of control | dose: 200.0 mg/kg/injection, schedule: Q04DX003 (ip), vehicle: saline 101 % of control | dose: 400.0 mg/kg/injection, schedule: Q04DX003 (ip), vehicle: saline 111 % of control

CCCCCCCCCCCCCCCC(=O)OC
inactive: [11] 105 % of control | [12] 98 % of control | [13] 101 % of control | [14] 93 % of control | [15] 97 % of control | [16] 98 % of control

CC(=O)NC(C)(SC(C)=O)C(=O)O (centres undefined)
inactive: [17] 94 % of control | [18] 95 % of control | dose: 400.0 mg/kg/injection, schedule: Q01DX001 (ip), vehicle: Klucel (hydroxypropylcellulose) (HPC) 94 % of control

Brc1ccc[n+](Cc2ccccc2)c1
inactive: [19] 98 % of control

COC(=O)C1=COC(C)C(C=O)C1CC(=O)O (centres undefined)
inactive: dose: 12.5 mg/kg/injection, schedule: Q01DX009 (ip), vehicle: saline 108 % of control | dose: 20.0 mg/kg/injection, schedule: Q01DX001 (ip), vehicle: saline 103 % of control | [8] 103 % of control | [9] 110 % of control | dose: 40.0 mg/kg/injection, schedule: Q01DX001 (ip), vehicle: saline 118 % of control | [10] 111 % of control | dose: 80.0 mg/kg/injection, schedule: Q01DX001 (ip), vehicle: saline 118 % of control

Cc1cc2c(c(Cl)n1)C(=O)OC2=O
inactive: dose: 75.0 mg/kg/injection, schedule: Q01DX001 (ip), vehicle: other 95 % of control | dose: 150.0 mg/kg/injection, schedule: Q01DX001 (ip), vehicle: other 95 % of control | dose: 300.0 mg/kg/injection, schedule: Q01DX001 (ip), vehicle: other 103 % of control

COc1ccc(/C=N\O)cc1OC
inactive: [1] 94 % of control and 90 % of control | [3] 101 % of control | [5] 90 % of control

CC1=C(CO)C(=O)O[C@@H]([C@@H](C)[C@H]2CC[C@H]3[C@@H]4C[C@H]5O[C@]56[C@@H](O)C=CC(=O)[C@]6(C)[C@H]4CC[C@]23C)C1
inactive: dose: 10.0 mg/kg/injection, schedule: Q01DX Z (ip), vehicle: carboxymethylcellulose (CMC) 98 % of control | dose: 20.0 mg/kg/injection, schedule: Q01DX Z (ip), vehicle: carboxymethylcellulose (CMC) 101 % of control | dose: 50.0 mg/kg/injection, schedule: Q01DX001 (sc), vehicle: steriod suspending solution 103 % of control | dose: 100.0 mg/kg/injection, schedule: Q01DX001 (sc), vehicle: steriod suspending solution 100 % of control | dose: 200.0 mg/kg/injection, schedule: Q01DX001 (sc), vehicle: steriod suspending solution 103 % of control

O=S1c2ccccc2Oc2ccccc21
inactive: [20] 108 % of control | [21] 108 % of control | [22] 108 % of control

N#Cc1c2ccccc2nc2ccccc12
inactive: dose: 50.0 mg/kg/injection, schedule: Q01DX001 (ip), vehicle: carboxymethylcellulose (CMC) 90 % of control | dose: 100.0 mg/kg/injection, schedule: Q01DX001 (ip), vehicle: carboxymethylcellulose (CMC) 92 % of control | dose: 200.0 mg/kg/injection, schedule: Q01DX001 (ip), vehicle: carboxymethylcellulose (CMC) 90 % of control | [7] 90 % of control

[CH3][Sb]([CH3])[S]C1OC(CO)C(O)C(O)C1O (centres undefined)
inactive: dose: 12.5 mg/kg/injection, schedule: Q04DX003 (ip), vehicle: Klucel (hydroxypropylcellulose) (HPC) 99 % of control | dose: 25.0 mg/kg/injection, schedule: Q04DX003 (ip), vehicle: Klucel (hydroxypropylcellulose) (HPC) 89 % of control | dose: 50.0 mg/kg/injection, schedule: Q04DX003 (ip), vehicle: Klucel (hydroxypropylcellulose) (HPC) 95 % of control

Cc1ccc([N+](=O)[O-])c(OC(=O)Nc2ccc(Cl)c(Cl)c2)c1
inactive: [11] 101 % of control | [12] 96 % of control and 106 % of control | [13] 101 % of control | [14] 88 % of control | [15] 114 % of control | [16] 87 % of control and 91 % of control

Nc1cc(Cl)c(S(=O)(=O)O)cc1Cl
inactive: dose: 50.0 mg/kg/injection, schedule: Q01DX009 (ip), vehicle: saline with Tween-80 90 % of control | [23] 95 % of control | [1] 107 % of control | [20] 100 % of control | [24] 86 % of control | [3] 97 % of control | [21] 91 % of control | [22] 88 % of control

CSc1ccc(NC(=O)Nc2cccc(F)c2)cc1
inactive: dose: 100.0 mg/kg/injection, schedule: Q01DX009 (ip), vehicle: other 108 % of control | dose: 200.0 mg/kg/injection, schedule: Q01DX009 (ip), vehicle: other 96 % of control

O=C(c1ccc(Cl)cc1)C(O)c1ccc(Cl)cc1 (centres undefined)
inactive: dose: 50.0 mg/kg/injection, schedule: Q01DX001 (ip), vehicle: saline 96 % of control | [23] 90 % of control | [2] 90 % of control | [24] 96 % of control | [4] 92 % of control | dose: 400.0 mg/kg/injection, schedule: Q01DX001 (ip), vehicle: saline 100 % of control | [6] 86 % of control

Cc1ccc(N=Cc2ccccc2O)cc1
inactive: dose: 50.0 mg/kg/injection, schedule: Q01DX001 (ip), vehicle: Klucel (hydroxypropylcellulose) (HPC) 93 % of control | [17] 90 % of control | [18] 93 % of control

CC12CCC(/C(=C/N(O)/C=C3\C(=O)C4(C)CCC3C4(C)C)C1=O)C2(C)C
inactive: [19] 96 % of control | dose: 150.0 mg/kg/injection, schedule: Q01DX001 (ip), vehicle: saline 91 % of control | dose: 300.0 mg/kg/injection, schedule: Q01DX001 (ip), vehicle: saline 94 % of control
